The text below walks through data of patent publication US4207326A, “Antimicrobial quaternary pyrazole derivatives” (Cilag-Chemie A.G., priority 1979, dated 1980).

One assay has as its system A. corymbifera. The assay is described as follows: Antifungal activity: Minimum Inhibitory Concentration. In kind it is cell-based, Absidia corymbifera NCPF 2001. As to conditions: for MIC: Lichtheimia corymbifera, read-out: Minimum Inhibitory Concentration. The protocol: (§1) The antimicrobial activity was determined by inoculation of the test microorganism into suitable growth media containing solutions of the compounds at concentrations of 100, 50, 10, 5, 1.0, 0.5 and 0.1 μg/ml. The reference antibiotics used were Gentamicin for the antibacterial tests and Amphotericin B for the antimycotic and antifungal tests. After incubation the antimicrobial activity was recorded as the Minimal Inhibitory Concentration (M.I.C.), i.e., the lowest concentration preventing macroscopically visible growth, for each test compound against each organism.
(§2) An initial solution of each formula (I) compound to be tested in sterile distilled water was prepared at a concentration of 1000 μg/ml. With appropriate dilutions using sterile distilled water, additional solutions were prepared at concentrations of 500, 100, 50, 10, 5 and 1 μg/ml.
A. corymbifera NCPF 2001
(§3) The A. corymbifera, A. fumigatus, S. schenkii, T. rubrum, T. mentagrophytes, M. canis and P. verrucosa strains were all maintained on Sabouraud-Dextrose Agar (Oxoid CM 41) by incubating for 14 days at 27° C. To prepare the inocula 30 ml volumes of Sabouraud-Liquid medium (Oxoid CM 147) were inoculated from the agar cultures and incubated at 27° C. until heavy uniform growth resulted. The mycelial growth was then broken up by shaking with glass beads.
(§4) 1 Ml aliquots were removed from each of the cultures for the purpose of making viable counts and the cultures were then held at 4° C. The viable counts were made by preparing serial ten-fold dilutions of the cultures in sterile physiological saline and spreading on plates of Sabouraud-Dextrose Agar (Oxoid CM 41) which were then incubated at 27° C. for 14 days. When the viable counts had confirmed that each of the inocula contained approximately 10^6 colony forming units (C.F.U.) per ml the cultures were withdrawn from the refrigerator and used as the inocula for the tests.
(§5) (c) For the tests on each of the remaining seven strains and each of the test and reference compounds, a series of 8 tubes containing 4.5 ml volumes of Sabouraud-Liquid Medium (Oxoid CM 147) were prepared. To 7 of these were added 0.5 ml volumes of the final solutions of the test compounds, giving final concentrations in the broths of 100, 50, 10, 5, 1.0, 0.5 and 0.1 μg/ml. To the eighth tube in each series was added 0.5 ml of the solvent used and diluted as for the preparation of the 500 μg/ml solution of the compound. This tube was used as a growth control. The tubes were then inoculated with 0.1 ml aliquots of the inocula prepared as in "(b) Fungi" above. The tubes were then incubated at 27° C. with continuous shaking for a period of one week. The tubes were then examined for evidence of growth as shown by the presence of mycelial growth in the medium and the lowest concentration of the test compound which prevented fungal growth was recorded as the Minimal Inhibitory Concentration. This test procedure was carried out on two separate days.

The test system of a further assay is E. coli. The assay is described as follows: Antibacterial activity: Minimum Inhibitory Concentration. In kind it is cell-based, Escherichia coli ATCC 8739. The note with it: 24 hours; for MIC: Escherichia coli. The protocol: as §1, §2
They were cultured and maintained on Tryptone Soy Agar (Oxoid CM 131), with the addition of 10% horse blood for the S. pyogenes.
To prepare the organisms as inocula for the test, slopes of this medium were streaked with the organisms and incubated at 37° C. for 24 hours. 4.5 Ml volumes of Brian-Heart Infusion Broth (Oxoid CM 225) were then inoculated with a platinum loop from the agar slope cultures and incubated for 24 hours at 37° C. The final inocula were then prepared by adding 0.1 ml aliquots of the Brain-Heart Infusion Broth cultures to 100 ml volumes of sterile physiological saline.
(a) For the test on each of the bacterial strains and each of the test and reference compounds, a series of 8 tubes containing 4.5 ml volumes of Brain-Heart Infusion Broth (Oxoid CM 225) were prepared. To 7 of these were added 0.5 ml volumes of the final solutions of the test compouns, giving final concentrations in the broths of 100, 50, 10, 5, 1.0, 0.5 and 0.1 μg/ml. To the eighth tube in each series was added 0.5 ml of the solvent used and diluted as for the preparation of the 1000 μg/ml solution of the compound. This tube was used as the growth control. The tubes were inoculated with 0.02 ml aliquots of the inocula prepared in accordance with "(a) Bacteria" above, and incubated at 37° C. for 24 hours. The tubes were then examined for evidence of bacterial growth as shown by turbidity of the medium and the lowest concentration of the test compound which prevented bacterial growth was recorded as the Minimal Inhibitory Concentration. This test procedure was carried out on two separate days.

Another assay deals with S. schenkii. Kind of assay: Antifungal activity: Minimum Inhibitory Concentration. In kind it is cell-based, Sporotrichon schenkii NCPF 3182. As to conditions: for MIC: read-out: Minimum Inhibitory Concentration. The protocol:
as §1, §2, §3, §4, §5

Another assay relates to C. albicans. Kind of assay: Antimycotic activity: Minimum Inhibitory Concentration. In kind it is cell-based, Candida albicans ATCC 10231. The note with it: for Minimum Inhibitory Concentrations: C. albicans; for MIC: Candida albicans. The method, then: as §1, §2
The two species, C. albicans and C. tropicalis, were maintained on Sabouraud-Dextrose Agar (Oxoid CM41) and cultures for the preparation of the inoculum were incubated on this agar at 37° C. for 48 hours. 4.5 Ml volumes of citric acid-phosphate buffer pH 5.5 plus Yeast-Nitrogen Base (Difco 0392-15) were then inoculated from the agar cultures and incubated at 37° C. for 48 hours. 0.1 Ml aliquots of these cultures were then added to 100 ml volumes of sterile physiological saline to give the final inocula.
(§6) (b) For the tests on each of the C. albicans, C. tropicalis and C. neoformans strains and each of the test and reference compounds, a series of 8 tubes containing 4.5 ml volumes of citric acid-phosphate buffer pH 5.5 plus Yeast-Nitrogen Base (Difco 0392-15) were prepared. To 7 of these were added 0.5 ml volumes of the final solutions of the test compounds, giving final concentrations in the broths of 100, 50, 10, 5, 1.0, 0.5 and 0.1 μg/ml. To the eighth tube in each series was added 0.5 ml of the solvent used and diluted as for the preparation of the 1000 μg/ml solution of the compound. This tube was used as the growth control. The tubes were then inoculated with 0.1 ml aliquots of the inocula prepared as in "(b) Fungi" above. The tubes inoculated with the C. albicans and C. tropicalis were inoculated at 37° C. for 72 hours and the tubes inoculated with the C. neoformans straim were incubated at 30° C. for 72 hours. […] The tubes were then examined for evidence of growth as shown by turbidity of the medium and the lowest concentration of the test compound which prevented fungal growth was recorded as the Minimal Inhibitory Concentration. This test procedure was carried out on two separate days.

A further assay deals with C. neoformans. The description is as above. In kind it is cell-based, Cryptococcus neoformans NCPF 3184. The note with it: pH 5.5, 30° C., 72 hours; for Minimum Inhibitory Concentrations: C. neoformans; for MIC: Cryptococcus neoformans. The protocol: as §1, §2
The C. neoformans was also maintained on Sabouraud-Dextrose Agar (Oxoid CM 41), but in this case cultures for the preparation of the inoculum were incubated on this agar at 30° C. for 48 hours. A 4.5 ml volume of citric acid-phosphate buffer pH 5.5 plus Yeast-Nitrogen Base (Difco-0392-15) was then inoculated from the agar culture and incubated at 30° C. for 48 hours. A 0.1 ml aliquot of this culture was then added to 100 ml sterile physiological saline to give the final inoculum.
as §6

The mark [1] stands for this setting: A. corymbifera, Day 1, 27° C., one week.
[2] abbreviates: A. corymbifera, Day 2, 27° C., one week.
[3] abbreviates: S. schenkii, Day 1, 27° C., one week.
The mark [4] stands for this setting: S. schenkii, Day 2, 27° C., one week.
The mark [5] stands for this setting: Day 1, pH 5.5, 37° C., 72 hours.
The mark [6] stands for this setting: Day 2, pH 5.5, 37° C., 72 hours.
The mark [7] stands for this setting: pH 5.5, C. albicans, Day 1, pH 5.5, 37° C., 72 hours, read-out: Minimum Inhibitory Concentrations.
Where [8] appears, read: pH 5.5, C. albicans, Day 2, pH 5.5, 37° C., 72 hours, read-out: Minimum Inhibitory Concentrations.
Setting [9] is: pH 5.5, C. neoformans, Day 1, read-out: Minimum Inhibitory Concentrations.
Where [10] appears, read: pH 5.5, C. neoformans, Day 2, read-out: Minimum Inhibitory Concentrations.

Read-outs that look alike come from different tables or passages of the source.

Consider “2,3(5)-dimethyl-1-dodecyl-pyrazolium methosulfate [Example 8-A]”, for which the “Minimum Inhibitory Concentration” value with A. corymbifera (setting [1]) was found to be 100 µg/mL; in the assay on A. corymbifera (setting [2]) it was 100 µg/mL; with E. coli (Day 1, 37° C.) it was 50 µg/mL; in the assay on E. coli (Day 2, 37° C.), 50 µg/mL; in the assay with S. schenkii (setting [3]) it was 10 µg/mL; with S. schenkii (setting [4]), 10 µg/mL. The “Minimum Inhibitory Concentrations” value with C. albicans (setting [5]) was determined as 10 µg/mL; with C. albicans (setting [6]) it was 50 µg/mL; in the assay on C. neoformans (Day 1), 5 µg/mL; in the assay with C. neoformans (Day 2), 1 µg/mL.

Take “2,3(5)-dimethyl-1-hexadecyl-pyrazolium methosulfate [Example 9]”: the “Minimum Inhibitory Concentration” value in the assay with A. corymbifera (setting [1]) was found to be 10 µg/mL; with A. corymbifera (setting [2]), 10 µg/mL; with E. coli (Day 1, 37° C.), 50 µg/mL; with E. coli (Day 2, 37° C.), 10 µg/mL; with S. schenkii (setting [3]), 5 µg/mL; with S. schenkii (setting [4]) it was 5 µg/mL. In addition, the “Minimum Inhibitory Concentrations” value with C. albicans (setting [5]) is 5 µg/mL; in the assay with C. albicans (setting [6]) it was 10 µg/mL; in the assay on C. neoformans (Day 1), 1 µg/mL; in the assay with C. neoformans (Day 2), 0.5 µg/mL.

As for `CCCCCCCCCCCC[n+]1c(C)cc(C)n1Cc1ccc(Cl)cc1Cl.[Br-]` [Example 6-B, 2-(2,4-dichlorobenzyl)-3,5-dimethyl-1-dodecyl-pyrazolium bromide], the MIC was determined as 10 µg/mL with A. corymbifera (setting [1]); 10 µg/mL with A. corymbifera (setting [2]); 10 µg/mL against E. coli (Day 1, 37° C.); 5 µg/mL with E. coli (Day 2, 37° C.); 1 µg/mL in the assay with S. schenkii (setting [3]); 1 µg/mL in the assay with S. schenkii (setting [4]). For the same compound, the MIC is 5 µg/mL in the assay with C. albicans (setting [7]), 5 µg/mL with C. albicans (setting [8]), 1 µg/mL in the assay on C. neoformans (setting [9]) and 1 µg/mL with C. neoformans (setting [10]).

As for `CCCCCCCCCCCCCCCC[n+]1c(C)cc(C)n1C.Cc1ccc(S(=O)(=O)[O-])cc1` [Example 6-C, 1-hexadecyl-2,3,5-trimethylpyrazolium p-toluene sulfonate], the figures for the “Minimum Inhibitory Concentration” value in the assay with A. corymbifera (setting [2]) and in the assay on S. schenkii (setting [4]) were 10 µg/mL and 5 µg/mL, respectively. Moreover, the MIC in the assay with A. corymbifera was 10 µg/mL; with E. coli (Day 1, 37° C.) it was 10 µg/mL; with E. coli (Day 2, 37° C.), 10 µg/mL; with S. schenkii it was 5 µg/mL; with C. albicans (pH 5.5, read-out: Minimum Inhibitory Concentrations) it was 5 µg/mL; in the assay on C. neoformans (pH 5.5, read-out: Minimum Inhibitory Concentrations, C. neoformans, Day 1), 1 µg/mL. In the assay with C. neoformans (pH 5.5, read-out: Minimum Inhibitory Concentrations, C. neoformans, Day 2), the MIC was found to be 1 µg/mL. The “Minimum Inhibitory Concentrations” value in the assay with C. albicans (setting [6]) came out at 5 µg/mL.

Consider `C=CCn1c(C)cc(C)[n+]1CCCCCCCCCCCCCCCC.[Br-]` [Example 7, 2-allyl-3,5-dimethyl-1-hexadecyl-pyrazoliumbromide], for which the MIC came out at 5 µg/mL with A. corymbifera (setting [1]); 5 µg/mL in the assay on A. corymbifera (setting [2]); 10 µg/mL in the assay with E. coli (Day 1, 37° C.); 5 µg/mL in the assay with E. coli (Day 2, 37° C.); 5 µg/mL in the assay on S. schenkii (setting [3]); 5 µg/mL with S. schenkii (setting [4]). For the same compound, the MIC was 5 µg/mL with C. albicans (setting [7]), 1 µg/mL in the assay on C. albicans (setting [8]), 1 µg/mL in the assay on C. neoformans (setting [9]) and 0.5 µg/mL with C. neoformans (setting [10]).

For `CCCCCCCCCCCCCCCCn1c(C)cc(C)[n+]1C` [Example 2, 1-hexadecyl-2,3,5-trimethyl-pyrazolium methosulfate], the MIC stood at 50 µg/mL in the assay on A. corymbifera (setting [1]); 50 µg/mL with A. corymbifera (setting [2]); 10 µg/mL against E. coli (Day 1, 37° C.); 5 µg/mL against E. coli (Day 2, 37° C.); 10 µg/mL in the assay on S. schenkii (setting [3]); 10 µg/mL with S. schenkii (setting [4]). Besides, the MIC in the assay with C. albicans (setting [7]) was 1 µg/mL; in the assay on C. albicans (setting [8]), 1 µg/mL; with C. neoformans (setting [9]), 0.5 µg/mL; with C. neoformans (setting [10]), 0.5 µg/mL.

On to `CCCCCCCCCCCCn1ccc[n+]1C` [Example 3-E, 1-dodecyl-2-methy-pyrazolium methosulfate], for which the MIC in the assay on A. corymbifera (setting [1]) amounted to 100 µg/mL; with A. corymbifera (setting [2]), 100 µg/mL; in the assay on E. coli (Day 1, 37° C.) it was 50 µg/mL; against E. coli (Day 2, 37° C.), 50 µg/mL; with S. schenkii (setting [3]) it was 50 µg/mL; in the assay with S. schenkii (setting [4]), 10 µg/mL. Moreover, the MIC with C. albicans (setting [7]) stood at 50 µg/mL; in the assay with C. albicans (setting [8]), 50 µg/mL; in the assay on C. neoformans (setting [9]), 1 µg/mL; in the assay with C. neoformans (setting [10]), 5 µg/mL.
